Measurements from ChEMBL document CHEMBL5154758, “Structure-Activity Relationship Study of Indolin-5-yl-cyclopropanamine Derivatives as Selective Lysine Specific Demethylase 1 (LSD1) Inhibitors” (J Med Chem, 2022).
The source made the active and inactive calls. The calls are words filed in the database; no cut-off is given here.

How the values were obtained:
[1] = biological target: T1, Amine oxidase [flavin-containing] B (Homo sapiens, UniProt P27338); assay: Inhibition of human MAOB
T1 sequence (P27338 whole entry): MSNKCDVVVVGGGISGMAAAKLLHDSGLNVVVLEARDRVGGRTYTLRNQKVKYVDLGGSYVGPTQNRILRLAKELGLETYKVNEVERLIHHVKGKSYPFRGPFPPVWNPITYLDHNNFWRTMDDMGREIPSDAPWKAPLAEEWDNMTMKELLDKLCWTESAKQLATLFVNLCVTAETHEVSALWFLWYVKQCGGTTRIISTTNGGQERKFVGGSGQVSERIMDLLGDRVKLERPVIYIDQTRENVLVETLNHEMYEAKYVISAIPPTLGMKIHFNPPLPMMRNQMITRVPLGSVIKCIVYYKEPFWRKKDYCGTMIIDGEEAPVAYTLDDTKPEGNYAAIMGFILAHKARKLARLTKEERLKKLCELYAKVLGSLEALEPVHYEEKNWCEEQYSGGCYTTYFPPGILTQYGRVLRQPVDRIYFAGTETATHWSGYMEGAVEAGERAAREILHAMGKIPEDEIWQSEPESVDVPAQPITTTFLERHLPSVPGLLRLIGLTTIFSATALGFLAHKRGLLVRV

[2] = biological target: T2, Lysine-specific histone demethylase 2 (Homo sapiens, UniProt Q8NB78); assay: Inhibition of recombinant human full length LSD2 using biotinylated H3K4Me2 peptide as substrate by TR-FRET assay
T2 sequence (Q8NB78 whole entry): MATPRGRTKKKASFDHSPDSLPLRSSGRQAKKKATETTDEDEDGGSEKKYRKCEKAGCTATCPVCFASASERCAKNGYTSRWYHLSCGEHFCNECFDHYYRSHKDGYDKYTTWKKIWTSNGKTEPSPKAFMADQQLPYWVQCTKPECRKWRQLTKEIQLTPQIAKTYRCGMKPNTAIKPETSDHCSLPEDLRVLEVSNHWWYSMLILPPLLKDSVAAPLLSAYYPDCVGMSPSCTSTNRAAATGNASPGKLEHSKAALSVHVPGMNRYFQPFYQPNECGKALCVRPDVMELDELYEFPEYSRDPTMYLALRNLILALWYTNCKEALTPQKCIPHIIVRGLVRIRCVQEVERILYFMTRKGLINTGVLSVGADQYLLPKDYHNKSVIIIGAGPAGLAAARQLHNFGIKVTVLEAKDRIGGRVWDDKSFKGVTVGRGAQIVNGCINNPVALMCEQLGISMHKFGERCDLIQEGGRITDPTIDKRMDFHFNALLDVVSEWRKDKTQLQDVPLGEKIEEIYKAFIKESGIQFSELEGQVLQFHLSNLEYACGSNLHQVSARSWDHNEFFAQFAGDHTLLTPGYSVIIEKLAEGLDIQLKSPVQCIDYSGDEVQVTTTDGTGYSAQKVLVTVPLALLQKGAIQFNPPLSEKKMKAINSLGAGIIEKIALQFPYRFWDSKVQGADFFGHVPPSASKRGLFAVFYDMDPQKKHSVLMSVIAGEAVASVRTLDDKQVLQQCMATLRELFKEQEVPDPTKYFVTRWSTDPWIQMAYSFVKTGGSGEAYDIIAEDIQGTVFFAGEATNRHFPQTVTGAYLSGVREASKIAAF

MV4-11 [3] = assay: Activation of CD86 expression in human MV4-11 cells incubated for 24 hrs by qRT-PCR analysis; format: functional, cell-based; conditions: MV4-11, 24 h
[4] = biological target: T3, Amine oxidase [flavin-containing] A (Homo sapiens, UniProt P21397); assay: biochemical
T3 sequence (P21397 whole entry): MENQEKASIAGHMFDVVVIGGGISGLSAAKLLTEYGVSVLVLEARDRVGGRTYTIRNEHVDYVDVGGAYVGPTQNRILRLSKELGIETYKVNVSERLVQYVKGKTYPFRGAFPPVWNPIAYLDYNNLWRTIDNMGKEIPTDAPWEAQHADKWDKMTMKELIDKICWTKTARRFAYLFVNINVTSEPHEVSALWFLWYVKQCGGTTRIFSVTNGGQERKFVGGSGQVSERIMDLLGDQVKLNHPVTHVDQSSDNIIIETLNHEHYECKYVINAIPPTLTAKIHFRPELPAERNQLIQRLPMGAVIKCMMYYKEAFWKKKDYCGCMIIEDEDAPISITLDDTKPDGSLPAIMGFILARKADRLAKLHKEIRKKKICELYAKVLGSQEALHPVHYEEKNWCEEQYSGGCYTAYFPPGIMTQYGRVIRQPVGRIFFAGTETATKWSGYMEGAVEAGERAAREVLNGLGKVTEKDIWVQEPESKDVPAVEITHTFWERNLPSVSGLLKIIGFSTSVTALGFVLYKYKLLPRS
Description: Inhibition of human recombinant MAO-A expressed in baculovirus infected BTI insect cells using luminogenic MAO substrate incubated for 1 hr by luciferin-based luminescence assay

[5] = biological target: T2, Lysine-specific histone demethylase 2; assay: Inhibition of human LSD2
MV4-11 [6] = assay: Induction of differentiation of human MV4-11 cells assessed as morphological changes by measuring reduction in nuclear to cytoplasmic ratio at 5 uM incubated for 240 hrs by Wright-Giemsa staining based microscopy; format: functional, cell-based
[7] = biological target: T1, Amine oxidase [flavin-containing] B; assay: biochemical
Description: Inhibition of human recombinant MAO-B expressed in baculovirus infected BTI insect cells using luminogenic MAO substrate incubated for 1 hr by luciferin-based luminescence assay

RPMI-8226 = assay: Antiproliferative activity against human RPMI-8226 cells assessed as inhibition of cell growth incubated for 240 hrs by MTS assay; format: functional, cell-based; conditions: RPMI-8226, 240 h
MV4-11 [8] = assay: Antiproliferative activity against human MV4-11 cells assessed as inhibition of cell growth incubated for 240 hrs by MTS assay; format: functional, cell-based; conditions: MV4-11, 240 h
[9] = Upregulation of CD86 expression in human MV4-11 cells assessed as fold change in CD86 expression at IC50 incubated for 24 hrs by qRT-PCR analysis relative to control; format: functional
MV4-11 [10] = assay: Induction of differentiation of human MV4-11 cells assessed as morphological changes by measuring segmented nucleus at 5 uM incubated for 240 hrs by Wright-Giemsa staining based microscopy; format: functional, cell-based
[11] = biological target: Lysine-specific histone demethylase 1A (Homo sapiens) (UniProt O60341); conditions: dose 300.0 nM, time 1.0 hrs
[12] = biological target: T3, Amine oxidase [flavin-containing] A; assay: Inhibition of human MAOA
[13] = Metabolic stability in rat hepatocytes at 3 uM incubated for 3 hrs by UPLC/Q-TOF MS analysis; format: ADME, cell-based, Hepatocyte
MV4-11 [14] = assay: In vivo antitumor activity against human MV4-11 cells xenografted in nu/nu mouse assessed as tumor volume at 20 mg/kg, po qd measured on day 15 (reference value: 959 +/- 111 mm3); format: functional; conditions: time 15 day
MV4-11 [15] = assay: Induction of differentiation of human MV4-11 cells assessed as morphological changes by measuring reduction in nuclear to cytoplasmic ratio at 2.5 uM incubated for 240 hrs by Wright-Giemsa staining based microscopy; format: functional, cell-based
MV4-11 [16] = assay: In vivo antitumor activity against human MV4-11 cells xenografted in nu/nu mouse assessed as tumor volume at 10 mg/kg, po qd measured on day 1 (reference value: 154 +/- 53 mm3); format: functional; conditions: time 1 day
MV4-11 [17] = assay: In vivo antitumor activity against human MV4-11 cells xenografted in nu/nu mouse assessed as relative tumor volume at 10 mg/kg, po qd measured after 15 days (reference value: 6.85 +/- 1.84 ); format: functional; conditions: time 15 day
MV4-11 [18] = assay: In vivo antitumor activity against human MV4-11 cells xenografted in nu/nu mouse assessed as relative tumor volume at 20 mg/kg, po qd measured after 15 days (reference value: 6.85 +/- 1.84 ); format: functional; conditions: time 15 day
[19] = Metabolic stability in dog hepatocytes at 3 uM incubated for 3 hrs by UPLC/Q-TOF MS analysis; format: ADME, cell-based, Canis lupus familiaris, Hepatocyte
[20] = Drug metabolism in monkey liver microsomes assessed as amino dealkylation of parent compound causing M1 metabolite formation at 3 uM incubated for 3 hrs by UPLC/Q-TOF MS analysis; format: ADME, Macaca mulatta, Microsome; conditions: rhesus monkey
MV4-11 [21] = assay: In vivo antitumor activity against human MV4-11 cells xenografted in nu/nu mouse assessed as T/C ratio at 20 mg/kg,po qd measured after 15 days relative to control; format: functional; conditions: time 15 day
MV4-11 [22] = assay: In vivo antitumor activity against human MV4-11 cells xenografted in nu/nu mouse assessed as tumor volume at 10 mg/kg, po qd measured on day 15 (reference value: 959 +/- 111 mm3); format: functional; conditions: time 15 day
[23] = AUC (0 to infinity) in ICR mouse at 20 mg/kg, po measured upto 24 hrs by LC-MS/MS analysis; format: ADME, organism-based; parameters: dose 20 mg/kg, time < 24 hrs, route po; conditions: in vivo
MV4-11 [24] = assay: In vivo antitumor activity against human MV4-11 cells xenografted in nu/nu mouse assessed as T/C ratio at 10 mg/kg, po qd measured after 15 days relative to control; format: functional; conditions: time 15 day
[25] = Drug metabolism in human liver microsomes assessed as amino dealkylation of parent compound causing M1 metabolite formation at 3 uM incubated for 3 hrs by UPLC/Q-TOF MS analysis; format: ADME, Microsome
[26] = Drug metabolism in monkey liver microsomes assessed as N-acetyl M2 metabolite formation at 3 uM incubated for 3 hrs by UPLC/Q-TOF MS analysis; format: ADME, Macaca mulatta, Microsome; conditions: rhesus monkey
MV4-11 [27] = assay: Induction of differentiation of human MV4-11 cells assessed as morphological changes by measuring segmented nucleus at 2.5 uM incubated for 240 hrs by Wright-Giemsa staining based microscopy; format: functional, cell-based
[28] = Cmax in ICR mouse at 20 mg/kg, po measured upto 24 hrs by LC-MS/MS analysis; format: ADME, organism-based; parameters: time < 24 hrs, dose 20 mg/kg, route po; conditions: in vivo
[29] = Drug metabolism in human liver microsomes assessed as N-acetyl M2 metabolite formation at 3 uM incubated for 3 hrs by UPLC/Q-TOF MS analysis; format: ADME, Microsome
[30] = Half life in ICR mouse at 20 mg/kg, po measured upto 24 hrs by LC-MS/MS analysis; format: ADME, organism-based; conditions: in vivo
MV4-11 [31] = assay: In vivo antitumor activity against human MV4-11 cells xenografted in nu/nu mouse assessed as tumor volume at 20 mg/kg, po qd measured on day 1 (reference value: 154 +/- 53 mm3); format: functional; conditions: time 1 day
[32] = Metabolic stability in mouse hepatocytes at 3 uM incubated for 3 hrs by UPLC/Q-TOF MS analysis; format: ADME, cell-based, Hepatocyte
[33] = biological target: T2, Lysine-specific histone demethylase 2; assay: Inhibition of human LSD2 using H3K4Me2 peptide as substrate incubated for 60 min by peroxidase-coupled method

## O=C(O)c1ccc(CN2CCC(CN[C@@H]3C[C@H]3c3ccccc3)CC2)cc1 [GSK2879552]
[1]
  IC50: > 100 µM
[2]
  IC50: > 100 µM
MV4-11 [3]
  EC50: 0.023 µM
[4]
  IC50: > 100 µM
[5]
  IC50: > 100 µM
MV4-11 [6]
  Activity: Active
[7]
  IC50: > 100 µM
RPMI-8226
  IC50: > 20 µM
MV4-11 [8]
  IC50: 1.19 µM
[9]
  fold change (FC): 10.15
MV4-11 [10]
  Activity: Active
[11]
  inhibition: Active
[12]
  IC50: > 100 µM

## O=S(=O)(c1ccccc1)N1CCc2cc(C3CC3NCC3CCNCC3)ccc21 (configuration not stated)
[13]
  Stability: Stable
MV4-11 [14]
  Activity: 334 mm3
MV4-11 [15]
  Activity: Active
MV4-11 [16]
  Activity: 156 mm3
MV4-11 [17]
  Activity: 3.58
MV4-11 [18]
  Activity: 2.12
MV4-11 [3]
  EC50: 0.47 µM
[19]
  Stability: Stable
[4]
  IC50: > 100 µM
[20]
  Drug metabolism: Metabolite_Detected
MV4-11 [21]
  Activity: 30.89%
MV4-11 [22]
  Activity: 522 mm3
[23]
  AUC: 619 ng·h/mL
[7]
  IC50: > 100 µM
MV4-11 [24]
  Activity: 52.29%
RPMI-8226
  IC50: > 20 µM
[25]
  Drug metabolism: Metabolite_Detected
MV4-11 [8]
  IC50: 1.36 µM
[26]
  Drug metabolism: Metabolite_Detected
MV4-11 [27]
  Activity: Active
[28]
  Cmax: 85.7 ng/mL
[29]
  Drug metabolism: Metabolite_Detected
[30]
  half-life: 5.32 h
MV4-11 [31]
  Activity: 157 mm3
[32]
  Stability: Stable

## O=S(=O)(c1ccccc1)N1CCc2cc(C3CC3NC3CC4(CCNCC4)C3)ccc21 (trans isomer)
[4]
  IC50: > 100 µM
[7]
  IC50: > 100 µM

## CCS(=O)(=O)N1CCc2cc(C3CC3NCC3CCNCC3)ccc21 (trans isomer)
[4]
  IC50: > 100 µM
[7]
  IC50: > 100 µM
MV4-11 [8]
  IC50: 2.52 µM

## CCCCC(=O)N1CCc2cc(C3CC3NCC3CCNCC3)ccc21 (configuration not stated)
[4]
  IC50: > 100 µM
[7]
  IC50: > 100 µM

## O=S(=O)(c1ccccc1)N1CCc2cc(C3CC3NCC3CCN(Cc4ccccc4)CC3)ccc21 (trans isomer)
[7]
  IC50: > 100 µM

## N[C@@H]1C[C@H]1c1ccc(NC(=O)c2ccccc2)cc1
[33]
  Ki: 61 µM

## O=C(N[C@@H](CCCCNC1CC1c1ccccc1)C(=O)NCc1ccc(Cl)cc1)c1ccc(-c2ccccc2)cc1 (some centres not stated)
[4]
  IC50: > 100 µM
[7]
  IC50: > 100 µM

## N[C@H]1CC[C@H](CNC2CC2c2ccc3c(c2)CCN3S(=O)(=O)c2ccccc2)CC1 (some centres not stated)
[4]
  IC50: 96.3 µM

## CC1(CNC2CC2c2ccc3c(c2)CCN3S(=O)(=O)c2ccccc2)CCNCC1 (trans isomer)
[4]
  IC50: 100 µM
[7]
  IC50: > 100 µM
